Data reported in patent US20240002416A1 (Rheinische-Friedrich-Wilhelms-Universität Bonn, priority 2020, published 2024).
Where two headings read alike, the source gives them in different places.

Assays:
MRGPRX4-83S = MRGPRX4-83S (Homo sapiens, UniProt Q96LA9, L83S); assay: β-arrestin assay (CHO β-arrestin human MRGPRX4-83S); type: cell-based; set-up: host or cells: CHO β-arrestin cells; conditions: for Emax: efficacy based on 100 nM B-16 (set as 100%), read-out: Emax; for EC50: β-arrestin recruitment, CHO cells, MRGPRX4-83S, read-out: EC50 ± SEM
Chain of MRGPRX4-83S (Q96LA9 whole entry L83S): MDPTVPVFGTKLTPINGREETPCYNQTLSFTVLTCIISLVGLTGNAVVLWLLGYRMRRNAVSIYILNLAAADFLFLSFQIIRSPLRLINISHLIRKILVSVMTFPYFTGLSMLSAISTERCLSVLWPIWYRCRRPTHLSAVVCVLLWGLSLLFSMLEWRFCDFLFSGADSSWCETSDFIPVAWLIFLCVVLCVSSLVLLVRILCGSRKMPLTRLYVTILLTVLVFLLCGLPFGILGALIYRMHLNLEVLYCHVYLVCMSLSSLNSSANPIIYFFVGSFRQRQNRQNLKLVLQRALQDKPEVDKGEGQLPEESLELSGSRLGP
Summary of the method: (§1)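 Two formats: β-galactosidase complementation reporting β-arrestin binding in engineered CHO cells, and calcium mobilization in recombinant astrocytes (83L) or endogenously expressing LN229 cells (83S).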

human MRGPRX4-83L [1] = biological target: T1, human MRGPRX4-83L (Homo sapiens, UniProt Q96LA9); assay: Calcium assay (human MRGPRX4 83L), recombinant astrocytes; type: cell-based; conditions: for EC50: calcium mobilization, MRGPRX4-83L, read-out: EC50 ± SEM; for Emax: efficacy based on maximal effect of 1 μM B-16 (set as 100%), read-out: Emax
T1 construct: host or cells: CHO β-arrestin cells
T1 sequence (Q96LA9 whole entry): as the sequence (Q96LA9 whole entry L83S) above, with S83L counted along it
Summary of the method: as §1

human MRGPRX4-83L [2] = biological target: T1, human MRGPRX4-83L; assay: β-arrestin assay (CHO β-arrestin ARMS1-ProLink 2 human MRGPRX4 83L); type: cell-based; conditions: for Emax: efficacy based on maximal effect of 100 nM B-16 (set as 100%), read-out: Emax; for EC50: β-arrestin recruitment, CHO cells, MRGPRX4-83L, read-out: EC50 ± SEM; for IC50: inhibition of the effect of 2.6 μM B-16
Summary of the method: as §1

[3] = Table 1, means of 3-4 experiments

| Structure (SMILES) | Emax (MRGPRX4-83S; Table 2) [%] | Emax (human MRGPRX4-83L [1]; Table 1) [%] | Emax (human MRGPRX4-83L [2]; Table 1) [%] | IC50 (MRGPRX4-83S) [µM] | Emax (MRGPRX4-83S; Table 3) [%] | EC50 (MRGPRX4-83S; Table 3) [µM] | EC50 (human MRGPRX4-83L [1]; Table 4) [µM] | Emax (human MRGPRX4-83L [1]; Table 4) [%] | Emax (human MRGPRX4-83L [2]; Table 4) [%] | EC50 (human MRGPRX4-83L [2]; Table 4) [µM] | EC50 (MRGPRX4-83S; Table 2) [µM] | EC50 (human MRGPRX4-83L [1]; Table 1) [µM] | EC50 (human MRGPRX4-83L [2]; [3]) [µM] | melting point [°C] | IC50 (human MRGPRX4-83L [2]; Table 1) [µM] | IC50 (human MRGPRX4-83L [1]) [µM] |
| --- | --- | --- | --- | --- | --- | --- | --- | --- | --- | --- | --- | --- | --- | --- | --- | --- |
| C#CCn1c(=O)c2[nH]c(CCc3ccccc3OC)nc2n(CCCCP(=O)(OCC)OCC)c1=O [C-1, Diethyl (4-(8-(2-Methoxyphenethyl)-2,6-dioxo-1-(prop-2-yn-1-yl)-1,2,6,7-tetrahydro-3H-purin-3-yl)butyl)phosphonate] | – | – | – | – | – | – | – | – | – | – | > 10 | > 10 | > 10 | 104 to 106 | > 10 | > 10 |
| C#CCn1c(=O)c2c(nc(CCc3ccccc3OC)n2C)n(CCCCP(=O)(OCC)OCC)c1=O [C-2, Diethyl (4-(8-(2-methoxyphenethyl)-7-methyl-2,6-dioxo-1-(prop-2-yn-1-yl)-1,2,6,7-tetrahydro-3H-purin-3-yl)butyl)phosphonate] | – | – | – | – | – | – | – | – | – | – | > 10 | > 10 | > 10 | 124 to 146 | > 10 | > 10 |
| C#CCn1c(=O)c2[nH]c(CCc3cccc(Br)c3)nc2n(CCCCP(=O)(OCC)OCC)c1=O [C-3, Diethyl (4-(8-(3-bromophenethyl)-2,6-dioxo-1-(prop-2-yn-1-yl)-1,2,6,7-tetrahydro-3H-purin-3-yl)butyl)phosphonate] | – | – | – | – | – | – | – | – | – | – | > 10 | > 10 | > 10 | 133 to 135 | > 10 | > 10 |
| C#CCn1c(=O)c2[nH]c(CCc3cccc(C)c3)nc2n(CCCCP(=O)(OCC)OCC)c1=O [C-4, Diethyl (4-(8-(3-methylphenethyl)-2,6-dioxo-1-(prop-2-yn-1-yl)-1,2,6,7-tetrahydro-3H-purin-3-yl)butyl)phosphonate] | – | – | – | – | – | – | – | – | – | – | > 10 | > 10 | > 10 | 111 to 113 | > 10 | > 10 |
| C#CCn1c(=O)c2c(nc(CCc3cccc(C(F)(F)F)c3)n2C)n(CCCCP(=O)(OCC)OCC)c1=O [C-5, Diethyl (4-(7-methyl-2,6-dioxo-1-(prop-2-yn-1-yl)-8-(3-(trifluoromethyl)phenethyl)-1,2,6,7-tetrahydro-3H-purin-3-yl)butyl)phosphonate] | – | – | – | – | – | – | – | – | – | – | > 10 | > 10 | > 10 | 121 to 124 | > 10 | > 10 |
| CCOP(=O)(CCCCn1c(=O)n(CC2CCC2)c(=O)c2[nH]c(CCc3cccc(OC)c3)nc21)OCC [C-7, Diethyl (4-(1-(cyclobutylmethyl)-8-(3-methoxyphenethyl)-2,6-dioxo-1,2,6,7-tetrahydro-3H-purin-3-yl)butyl)phosphonate] | – | – | – | – | – | – | – | – | – | – | > 10 | > 10 | > 10 | 82 to 84 | > 10 | > 10 |
| CCOP(=O)(CCCCn1c(=O)n(CC)c(=O)c2[nH]c(C3CC3c3ccccc3)nc21)OCC (stereo not shown) [C-9, Diethyl (4-(1-ethyl-2,6-dioxo-8-(2-phenylcyclopropyl)-1,2,6,7-tetrahydro-3H-purin-3-yl)butyl)phosphonate] | – | – | – | – | – | – | – | – | – | – | > 10 | > 10 | > 10 | 124 to 126 | > 10 | > 10 |
| C#CCn1c(=O)c2[nH]c(CCc3ccccc3OC)nc2n(CCCCP(=O)(O)OCC)c1=O [D-2, Ethyl hydrogen (4-(8-(2-methoxyphenethyl)-2,6-dioxo-1-(prop-2-yn-1-yl)-1,2,6,7-tetrahydro-3H-purin-3-yl)butyl)phosphonate] | 141 | 103 | 122 | – | – | – | – | – | – | – | 0.000493 ± 0.000104 | 3.32 ± 0.61 | 0.113 ± 0.033 | 172 to 174 | – | – |
| CCn1c(=O)c2[nH]c(CCc3cccc(OC)c3)nc2n(CCCCS(=O)(=O)O)c1=O [E-2, 4-(1-Ethyl-8-(3-methoxyphenethyl)-2,6-dioxo-1,2,6,7-tetrahydro-3H-purin-3-yl)butane-1-sulfonic acid] | – | – | – | – | – | – | – | – | – | – | > 10 | > 10 | > 10 | 179 to 181 | > 10 | > 10 |
| C#CCn1c(=O)c2[nH]c(CCc3ccccc3Br)nc2n(CCCCS(N)(=O)=O)c1=O [F-1, 4-(8-(2-Bromophenethyl)-2,6-dioxo-1-(prop-2-yn-1-yl)-1,2,6,7-tetrahydro-3H-purin-3-yl)butane-1-sulfonamide] | – | – | – | – | – | – | – | – | – | – | > 10 | > 10 | > 10 | 216 to 219 | > 10 | > 10 |
| C#CCn1c(=O)c2[nH]c(CCc3ccccc3OC)nc2n(CCCCC(=O)O)c1=O [G-1, 5-(8-(2-Methoxyphenethyl)-2,6-dioxo-1-(prop-2-yn-1-yl)-1,2,6,7-tetrahydro-3H-purin-3-yl)pentanoic acid] | – | – | – | – | – | – | – | – | – | – | > 10 | > 10 | > 10 | 196 to 198 | > 10 | > 10 |
| O=C(O)CCCCn1c(=O)n(CC2CCC2)c(=O)c2[nH]c(CCc3cccc(C(F)(F)F)c3)nc21 [G-2, 5-(1-(Cyclobutylmethyl)-2,6-dioxo-8-(3-(trifluoromethyl)phenethyl)-1,2,6,7-tetrahydro-3H-purin-3-yl)pentanoic acid] | – | – | – | – | – | – | – | – | – | – | > 10 | > 10 | > 10 | 210 to 212 | > 10 | > 10 |

Now from value to compound, other results behind:

| Emax (MRGPRX4-83S; Table 2) [%] | Emax (human MRGPRX4-83L [1]; Table 1) [%] | Emax (human MRGPRX4-83L [2]; Table 1) [%] | IC50 (MRGPRX4-83S) [µM] | Emax (MRGPRX4-83S; Table 3) [%] | EC50 (MRGPRX4-83S; Table 3) [µM] | EC50 (human MRGPRX4-83L [1]; Table 4) [µM] | Emax (human MRGPRX4-83L [1]; Table 4) [%] | Emax (human MRGPRX4-83L [2]; Table 4) [%] | EC50 (human MRGPRX4-83L [2]; Table 4) [µM] | Structure (SMILES) | EC50 (MRGPRX4-83S; Table 2) [µM] | EC50 (human MRGPRX4-83L [1]; Table 1) [µM] | EC50 (human MRGPRX4-83L [2]; [3]) [µM] | melting point [°C] | IC50 (human MRGPRX4-83L [2]; Table 1) [µM] | IC50 (human MRGPRX4-83L [1]) [µM] |
| --- | --- | --- | --- | --- | --- | --- | --- | --- | --- | --- | --- | --- | --- | --- | --- | --- |
| 143 | 114 | 98 | – | – | – | – | – | – | – | C#CCn1c(=O)c2[nH]c(CCc3ccccc3Br)nc2n(CCCCP(=O)(O)O)c1=O [B-8, (4-(8-(2-Bromophenethyl)-2,6-dioxo-1-(prop-2-yn-1-yl)-1,2,6,7-tetrahydro-3H-purin-3-yl)butyl)phosphonic acid] | 0.00315 ± 0.00082 | 0.0227 ± 0.0072 | 0.243 ± 0.045 | 209 to 212 | – | – |
| 116 | 107 | 107 | – | – | – | – | – | – | – | C#CCn1c(=O)c2[nH]c(CCc3ccccc3Cl)nc2n(CCCCP(=O)(O)O)c1=O [B-9, (4-(8-(2-Chlorophenethyl)-2,6-dioxo-1-(prop-2-yn-1-yl)-1,2,6,7-tetrahydro-3H-purin-3-yl)butyl)phosphonic acid] | 0.00345 ± 0.00028 | 0.0552 ± 0.0017 | 1.26 ± 0.27 | 207 to 209 | – | – |
| – | 100 | – | 9.72 ± 1.05 | – | – | – | – | – | – | C#CCn1c(=O)c2[nH]c(CCc3ccc(OC)c(OC)c3)nc2n(CCCCP(=O)(O)O)c1=O [B-11, (4-(8-(3,4-Dimethoxyphenethyl)-2,6-dioxo-1-(prop-2-yn-1-yl)-1,2,6,7-tetrahydro-3H-purin-3-yl)butyl)phosphonic acid] | – | 28 ± 3.3 | > 10 | 254 to 256 | 50.5 ± 1.4 | – |
| – | – | – | – | 89 | 9.37e-05 ± 5.23e-05 | 0.000389 ± 9.2e-05 | 103 | 94 | 0.0874 ± 0.0242 | C#CCn1c(=O)c2c(nc(CCc3ccccc3I)n2CC)n(CCCCP(=O)(O)O)c1=O [B-31, (4-(7-Ethyl-8-(2-iodophenethyl)-2,6-dioxo-1-(prop-2-yn-1-yl)-1,2,6,7-tetrahydro-3H-purin-3-yl)butyl)phosphonic acid] | – | – | – | 202 to 204 | – | – |
